According to US20040142929A1, “Derivatives of aryl (or heteroaryl) azolylcarbinoles for the treatment of urinary incontinence” (priority 2001, published 2004):

How the values were obtained:
[1] = tested on: Urinary incontinence secondary to overactive bladder (detrusor hyperreflexia or instability) or idiopathic urge incontinence; test: Clinical Study A: placebo controlled clinical trial, 84 days; format: in vivo, human
Description: (§1) In a placebo controlled clinical trial 79 patients were randomised. Patients from both genders aged between 18 and 80 years (both inclusive) were included. They had Urinary incontinence secondary to overactive bladder (detrusor hyperreflexia or instability) or idiopathic urge incontinence confirmed by the medical history and urodynamic study.
The patients were treated within one group with (±)-5-{α-[2-(dimethylamino)ethoxy]benzyl}-1-methyl-1H-pirazole citrate, 400 mg, twice a day, tablets for oral administration, or within another group with placebo in matching tablets, twice a day, for administration by oral route. The patients were treated for 84 days.
Efficacy was measured by the difference from baseline in the mean number of leakages, micturitions, urgencies and voidings/24 hours as provided by a 7-day frequency-volume chart in the end of study visit
The primary efficacy analysis was based on the PP population. The treatment groups were compared with respect to the treatment effect, defined as the difference between treatment groups for changes from baseline in the number of voidings per 24 hours.
(§2) As an addition the percentage of responders was compared based on an analysis of the number of patients having <8 voidings/day or experienced complete dryness or both. The statistical significance was determined.

[2] = tested on: Urinary incontinence secondary to overactive bladder (detrusor hyperreflexia or instability) or idiopathic urge incontinence; test: Clinical Study B: placebo controlled clinical trial, 84 days; format: in vivo, human
Description: as §1, with “135” for “79”
The patients were treated within one group with […]{α-[2-(dimethylamino)ethoxy]benzyl}-1-methyl-1H-pirazole citrate, 230 mg b.i.d, capsules (meaning 400 mg (±)-5-{α-[2-(dimethylamino)ethoxy]benzyl}-1-methyl-1H-pirazole citrate/capsule) for oral administration (twice daily) or within another group with placebo, matching capsules, […], for administration by oral route. The patients were treated for 84 days.
Efficacy was measured by the difference from baseline in the mean number of voidings/24 hours as provided by a 7-day frequency-volume chart in the end of study visit.
The primary efficacy analysis was based on the PP population. […]
as §2

[3] = patients, 400 mg citrate twice a day, oral tablets, 84 days, difference from baseline, 7-day frequency-volume chart

Structure (SMILES): CN(C)CCOC(c1ccccc1)c1ccnn1C.O=C(O)CC(O)(CC(=O)O)C(=O)O (racemic) [(±)-5-{α-[2-(dimethylamino)ethoxy]benzyl}-1-methyl-1H-pirazole]
- percentage of responders (patients having <8 voidings/day or complete dryness or both) versus placebo ([1]; patients, 400 mg citrate twice a day, oral, 84 days, FIG. 1): superior to placebo
- percentage of responders (patients having <8 voidings/day or complete dryness or both) versus placebo ([2]; 230 mg b.i.d., oral, FIG. 2): superior to placebo
- reduction of the mean number of voidings per 24 hours (change from baseline) ([2]; patients, 230 mg b.i.d. (400 mg citrate/capsule), oral capsules, PP population): 5.83 units

Structure (SMILES): CN(C)CCOC(c1ccccc1)c1ccnn1C.O=C(O)CC(O)(CC(=O)O)C(=O)O (racemic) [(±)-5-{α-[2-(dimethylamino)ethoxy]benzyl}-1-methyl-1H-pirazole citrate]
- improving urge incontinence caused by overactive bladder: efficacy variables compared to placebo ([1]; citrate 400 mg twice a day (equivalent to 230 mg base twice a day), oral route): statistical and clinically significant improvements compared to placebo in the majority of efficacy variables considered
- mean number of daily leakages compared with placebo [1, 3]: significant reduction
- mean number of daily micturitions compared with placebo [1, 3]: significant reduction
- mean number of daily urgencies compared with placebo [1, 3]: significant reduction
- mean number of daily voidings compared with placebo [1, 3]: significant reduction
